PubChem BioAssay AID1845195 (Molecular Pharmacology Branch, DTP, NCI, 2023)
pIC50: −log10 of the molar value. Values joined by “and” are separate entries in the source; they are usually repeats but may differ in a detail not shown here. Identical values can stand only once.

Test system: 156681-154-R-J1 tumor spheroid viability
Test: Anticancer human tumor 156681-154-R-J1 patient-derived melanoma cell line growth inhibition
Conditions: spheroids with HUVEC and MSC; for viability, T/C: stronger effect = lower value
How it was run: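 Single agents and combinations were tested on spheroids built from tumor cells plus HUVEC and hMSC, at half-log dilutions starting at or near clinical Cmax, else 10 microM; final DMSO 0.25% (v/v).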

[1] = curve of first compound, second compound 1 µM
[2] = curve of first compound, second compound 3.16 µM
[3] = curve of first compound, second compound 10 µM
[4] = curve of first compound, second compound 31.6 µM
[5] = curve of first compound, second compound 100 µM
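Further: spheroids exposed to compounds for 7 days before readout.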
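Wherever viability, T/C is given: percent of vehicle control viability where 100% = DMSO-treated spheroids.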

## [2H]c1nc(C)nc([2H])c1-c1cc(NC[C@@H](C)c2cccc3c(C(=O)NC)ccnc23)ncn1 + Cn1nnc2c(C(N)=O)ncn2c1=O
[1]
  pIC50: < 5.00
[2]
  pIC50: < 5.00
[3]
  pIC50: < 5.00
[4]
  pIC50: < 5.00
[5]
  pIC50: 5.61
Second compound 1 µM, first compound 0.0316 µM
  viability, T/C: 117%
Second compound 1 µM, first compound 0.1 µM
  viability, T/C: 107%
Second compound 1 µM, first compound 0.316 µM
  viability, T/C: 104%
Second compound 1 µM, first compound 1 µM
  viability, T/C: 83.8%
Second compound 1 µM, first compound 3.16 µM
  viability, T/C: 92.8%
Second compound 1 µM, first compound 10 µM
  viability, T/C: 82.4%
Second compound 3.16 µM, first compound 0.0316 µM
  viability, T/C: 71.8%
Second compound 3.16 µM, first compound 0.1 µM
  viability, T/C: 101%
Second compound 3.16 µM, first compound 0.316 µM
  viability, T/C: 114%
Second compound 3.16 µM, first compound 1 µM
  viability, T/C: 112%
Second compound 3.16 µM, first compound 3.16 µM
  viability, T/C: 120%
Second compound 3.16 µM, first compound 10 µM
  viability, T/C: 87.4%
Second compound 10 µM, first compound 0.0316 µM
  viability, T/C: 80%
Second compound 10 µM, first compound 0.1 µM
  viability, T/C: 69.7%
Second compound 10 µM, first compound 0.316 µM
  viability, T/C: 59.7%
Second compound 10 µM, first compound 1 µM
  viability, T/C: 63.8%
Second compound 10 µM, first compound 3.16 µM
  viability, T/C: 73.3%
Second compound 10 µM, first compound 10 µM
  viability, T/C: 64.9%
Second compound 31.6 µM, first compound 0.0316 µM
  viability, T/C: 54.9%
Second compound 31.6 µM, first compound 0.1 µM
  viability, T/C: 58.6%
Second compound 31.6 µM, first compound 0.316 µM
  viability, T/C: 48.7%
Second compound 31.6 µM, first compound 1 µM
  viability, T/C: 47.9%
Second compound 31.6 µM, first compound 3.16 µM
  viability, T/C: 52%
Second compound 31.6 µM, first compound 10 µM
  viability, T/C: 54%
Second compound 100 µM, first compound 0.0316 µM
  viability, T/C: 55.3%
Second compound 100 µM, first compound 0.1 µM
  viability, T/C: 47.8%
Second compound 100 µM, first compound 0.316 µM
  viability, T/C: 54.4%
Second compound 100 µM, first compound 1 µM
  viability, T/C: 52.4%
Second compound 100 µM, first compound 3.16 µM
  viability, T/C: 48.3%
Second compound 100 µM, first compound 10 µM
  viability, T/C: 48.9%

## Cn1nnc2c(C(N)=O)ncn2c1=O
Compound 1 µM
  viability, T/C: 90.8% [middle of 10 runs]
Compound 31.6 µM
  viability, T/C: 57.1% [middle of 10 runs]
Compound alone, run of 10/17/2019
  pIC50: 4.09 and < 4.00 and 4.14

## Cc1sc2c(c1C)C(c1ccc(Cl)cc1)=NC(CC(=O)Nc1ccc(O)cc1)c1nnc(C)n1-2 (stereo not drawn) + Cn1nnc2c(C(N)=O)ncn2c1=O
[1]
  pIC50: < 5.52
[2]
  pIC50: 6.07
[3]
  pIC50: 6.89
[4]
  pIC50: 7.69
[5]
  pIC50: 7.83
Second compound 1 µM, first compound 0.00949 µM
  viability, T/C: 92%
Second compound 1 µM, first compound 0.03 µM
  viability, T/C: 76%
Second compound 1 µM, first compound 0.0949 µM
  viability, T/C: 81.5%
Second compound 1 µM, first compound 0.3 µM
  viability, T/C: 80.7%
Second compound 1 µM, first compound 0.949 µM
  viability, T/C: 70.9%
Second compound 1 µM, first compound 3 µM
  viability, T/C: 57%
Second compound 3.16 µM, first compound 0.00949 µM
  viability, T/C: 90.3%
Second compound 3.16 µM, first compound 0.03 µM
  viability, T/C: 70.2%
Second compound 3.16 µM, first compound 0.0949 µM
  viability, T/C: 76.4%
Second compound 3.16 µM, first compound 0.3 µM
  viability, T/C: 54.9%
Second compound 3.16 µM, first compound 0.949 µM
  viability, T/C: 52.4%
Second compound 3.16 µM, first compound 3 µM
  viability, T/C: 37.4%
Second compound 10 µM, first compound 0.00949 µM
  viability, T/C: 79.1%
Second compound 10 µM, first compound 0.03 µM
  viability, T/C: 75.5%
Second compound 10 µM, first compound 0.0949 µM
  viability, T/C: 47.9%
Second compound 10 µM, first compound 0.3 µM
  viability, T/C: 41.3%
Second compound 10 µM, first compound 0.949 µM
  viability, T/C: 35.6%
Second compound 10 µM, first compound 3 µM
  viability, T/C: 24.4%
Second compound 31.6 µM, first compound 0.00949 µM
  viability, T/C: 62.3%
Second compound 31.6 µM, first compound 0.03 µM
  viability, T/C: 43%
Second compound 31.6 µM, first compound 0.0949 µM
  viability, T/C: 31.8%
Second compound 31.6 µM, first compound 0.3 µM
  viability, T/C: 29%
Second compound 31.6 µM, first compound 0.949 µM
  viability, T/C: 22.6%
Second compound 31.6 µM, first compound 3 µM
  viability, T/C: 18.6%
Second compound 100 µM, first compound 0.00949 µM
  viability, T/C: 53.4%
Second compound 100 µM, first compound 0.03 µM
  viability, T/C: 44.5%
Second compound 100 µM, first compound 0.0949 µM
  viability, T/C: 26.4%
Second compound 100 µM, first compound 0.3 µM
  viability, T/C: 13.6%
Second compound 100 µM, first compound 0.949 µM
  viability, T/C: 12.3%
Second compound 100 µM, first compound 3 µM
  viability, T/C: 11.7%
